Results on 6 compounds are retold here after the NIST ThermoML archive (doi:10.1021/je0400052).

For data set [1] the following is noted: 101.33 kPa, Liquid.
A short description of data set [2]: refractive index (Na D-line) (dimensionless). The following applies: 101.33 kPa, Liquid.
A short description of data set [3]: refractive index (Na D-line) (dimensionless); xn = mol fraction of the nth substance listed. The following applies: 101.3 kPa, Liquid.
Data set [4] can be described thus: xn = mol fraction of the nth substance listed. The following applies: 101.3 kPa, Liquid.

± gives the expanded uncertainty stated by the source.

For `Cc1ccccc1C` [1,2-dimethylbenzene], the mass density in data set [1] (303.15 K) is reported as 870.8 ± 1.9 kg/m3; in data set [1] (313.15 K), 863.3 ± 2 kg/m3. Besides, the values for the viscosity in data set [1] (303.15 K) and in data set [1] (313.15 K) were 0.695 ± 0.018 mPa·s and 0.621 ± 0.017 mPa·s, respectively. The values for the refractive index in data set [2] (303.15 K) and in data set [2] (313.15 K) were 1.5001 ± 0.0025 and 1.4981 ± 0.0025, respectively.
Take `Cc1cccc(C)c1` [1,3-dimethylbenzene]: the mass density in data set [1] (303.15 K) came out at 855.3 ± 1.8 kg/m3; in data set [1] (313.15 K), 847.1 ± 2 kg/m3. For the same compound, the viscosity in data set [1] (303.15 K) was 0.557 ± 0.015 mPa·s; in data set [1] (313.15 K) it was 0.508 ± 0.014 mPa·s. For the same compound, the refractive index in data set [2] (303.15 K) is 1.492 ± 0.0025; in data set [2] (313.15 K), 1.4901 ± 0.0025.
In the case of `Cc1ccc(C)cc1` [1,4-dimethylbenzene], the values for the mass density in data set [1] (303.15 K) and in data set [1] (313.15 K) were 851.9 ± 1.8 kg/m3 and 844 ± 2 kg/m3, respectively. Besides, the viscosity in data set [1] (303.15 K) was determined as 0.566 ± 0.016 mPa·s; in data set [1] (313.15 K), 0.517 ± 0.015 mPa·s. Besides, the refractive index in data set [2] (303.15 K) was determined as 1.4911 ± 0.0025; in data set [2] (313.15 K) it was 1.4902 ± 0.0025.
Regarding `CCOC(=O)c1ccccc1` [ethyl benzoate], the results for the mass density in data set [1] (303.15 K) and in data set [1] (313.15 K) were 1037.4 ± 2.3 kg/m3 and 1028.5 ± 2.4 kg/m3, respectively. The viscosity in data set [1] (303.15 K) turned out to be 1.748 ± 0.042 mPa·s; in data set [1] (313.15 K), 1.438 ± 0.035 mPa·s. For the same compound, the refractive index is 1.5009 ± 0.0025 in data set [2] (303.15 K) and 1.4997 ± 0.0025 in data set [2] (313.15 K).
Take `CCOC=O` [ethyl methanoate]: the values for the mass density in data set [1] (303.15 K) and in data set [1] (313.15 K) were 908.1 ± 2.1 kg/m3 and 894.9 ± 2.2 kg/m3, respectively. Further, the viscosity came out at 0.366 ± 0.011 mPa·s in data set [1] (303.15 K) and 0.339 ± 0.011 mPa·s in data set [1] (313.15 K). The refractive index in data set [2] (303.15 K) stood at 1.3552 ± 0.0032; in data set [2] (313.15 K) it was 1.3549 ± 0.0032.
Turning to `CCOC=O` [ethyl methanoate] + Cc1cccc(C)c1, the refractive index was 1.4892 ± 0.0099 in data set [3] (303.15 K, x1 = 0.1348); 1.4695 ± 0.0099 in data set [3] (303.15 K, x1 = 0.2728); 1.4561 ± 0.0099 in data set [3] (303.15 K, x1 = 0.3968); 1.4391 ± 0.0099 in data set [3] (303.15 K, x1 = 0.4988); 1.4288 ± 0.0099 in data set [3] (303.15 K, x1 = 0.6032); 1.4265 ± 0.0099 in data set [3] (303.15 K, x1 = 0.6923). Further, the refractive index in data set [3] (303.15 K, x1 = 0.7867) stood at 1.4055 ± 0.0099; in data set [3] (303.15 K, x1 = 0.8591) it was 1.3875 ± 0.01; in data set [3] (303.15 K, x1 = 0.9379), 1.3856 ± 0.0099; in data set [3] (313.15 K, x1 = 0.1348) it was 1.482 ± 0.0099; in data set [3] (313.15 K, x1 = 0.2728) it was 1.4679 ± 0.0099; in data set [3] (313.15 K, x1 = 0.3968) it was 1.4578 ± 0.0099. Also, the refractive index in data set [3] (313.15 K, x1 = 0.4988) worked out at 1.438 ± 0.0099; in data set [3] (313.15 K, x1 = 0.6032) it was 1.4276 ± 0.0099; in data set [3] (313.15 K, x1 = 0.6923), 1.4253 ± 0.0099; in data set [3] (313.15 K, x1 = 0.7867), 1.4043 ± 0.0099; in data set [3] (313.15 K, x1 = 0.8591), 1.385 ± 0.0099; in data set [3] (313.15 K, x1 = 0.9379), 1.3841 ± 0.0099. For the same compound, the mass density in data set [4] (303.15 K, x1 = 0.1348) amounted to 858.3 ± 3.5 kg/m3; in data set [4] (303.15 K, x1 = 0.2728), 863.3 ± 3.5 kg/m3; in data set [4] (303.15 K, x1 = 0.3968) it was 868.7 ± 3.5 kg/m3; in data set [4] (303.15 K, x1 = 0.4988), 873.1 ± 3.6 kg/m3; in data set [4] (303.15 K, x1 = 0.6032) it was 877.7 ± 3.6 kg/m3; in data set [4] (303.15 K, x1 = 0.6923), 882.8 ± 3.6 kg/m3. Further, the mass density is reported as 888.4 ± 3.6 kg/m3 in data set [4] (303.15 K, x1 = 0.7867); 895 ± 3.7 kg/m3 in data set [4] (303.15 K, x1 = 0.8591); 900.1 ± 3.7 kg/m3 in data set [4] (303.15 K, x1 = 0.9379); 849.8 ± 3.8 kg/m3 in data set [4] (313.15 K, x1 = 0.1348); 854.4 ± 3.8 kg/m3 in data set [4] (313.15 K, x1 = 0.2728); 859.5 ± 3.8 kg/m3 in data set [4] (313.15 K, x1 = 0.3968). The mass density is listed as 864.3 ± 3.9 kg/m3 in data set [4] (313.15 K, x1 = 0.4988); 869.2 ± 3.9 kg/m3 in data set [4] (313.15 K, x1 = 0.6032); 874.3 ± 3.9 kg/m3 in data set [4] (313.15 K, x1 = 0.6923); 880.1 ± 3.9 kg/m3 in data set [4] (313.15 K, x1 = 0.7867); 884.1 ± 4 kg/m3 in data set [4] (313.15 K, x1 = 0.8591); 889.7 ± 4 kg/m3 in data set [4] (313.15 K, x1 = 0.9379). For the same compound, the viscosity amounted to 0.524 ± 0.015 mPa·s in data set [4] (303.15 K, x1 = 0.1348); 0.494 ± 0.014 mPa·s in data set [4] (303.15 K, x1 = 0.2728); 0.467 ± 0.013 mPa·s in data set [4] (303.15 K, x1 = 0.3968); 0.449 ± 0.013 mPa·s in data set [4] (303.15 K, x1 = 0.4988); 0.43 ± 0.013 mPa·s in data set [4] (303.15 K, x1 = 0.6032); 0.414 ± 0.012 mPa·s in data set [4] (303.15 K, x1 = 0.6923). Besides, the viscosity in data set [4] (303.15 K, x1 = 0.7867) is recorded as 0.398 ± 0.012 mPa·s; in data set [4] (303.15 K, x1 = 0.8591), 0.386 ± 0.012 mPa·s; in data set [4] (303.15 K, x1 = 0.9379) it was 0.373 ± 0.011 mPa·s; in data set [4] (313.15 K, x1 = 0.1348) it was 0.479 ± 0.014 mPa·s; in data set [4] (313.15 K, x1 = 0.2728) it was 0.453 ± 0.013 mPa·s; in data set [4] (313.15 K, x1 = 0.3968), 0.431 ± 0.013 mPa·s. Further, the viscosity in data set [4] (313.15 K, x1 = 0.4988) is 0.412 ± 0.012 mPa·s; in data set [4] (313.15 K, x1 = 0.6032), 0.397 ± 0.012 mPa·s; in data set [4] (313.15 K, x1 = 0.6923), 0.384 ± 0.012 mPa·s; in data set [4] (313.15 K, x1 = 0.7867), 0.369 ± 0.011 mPa·s; in data set [4] (313.15 K, x1 = 0.8591), 0.357 ± 0.011 mPa·s; in data set [4] (313.15 K, x1 = 0.9379) it was 0.347 ± 0.011 mPa·s.
